Patent publication US20090068642A1, “Composition and pharmacology of novel alpha6-containing nicotinic acetylcholine receptors” (priority 2003, published 2009)
Values joined by “and” are separate entries in the source; they are usually repeats but may differ in a detail not shown here. Equal values may be shown once. “Also recorded” adds a separate entry of the source. Read-outs that look alike come from different tables or passages of the source.

Tests used:
α6β3β4α5 nAChR [1] = target: T1, α6β3β4α5 nAChR (Homo sapiens, UniProt P30926+Q15825); test: 86Rb+ efflux assay, SH-EP1 α6β3β4α5 cells; format: cell-based; conditions: SH-EP1 cells expressing α6β3β4α5-nAChR, FIG. 2
T1 construct: expressed in transfected cells; host or cells: SH-EP1 human epithelial cells
T1 sequence (Q15825 26-494): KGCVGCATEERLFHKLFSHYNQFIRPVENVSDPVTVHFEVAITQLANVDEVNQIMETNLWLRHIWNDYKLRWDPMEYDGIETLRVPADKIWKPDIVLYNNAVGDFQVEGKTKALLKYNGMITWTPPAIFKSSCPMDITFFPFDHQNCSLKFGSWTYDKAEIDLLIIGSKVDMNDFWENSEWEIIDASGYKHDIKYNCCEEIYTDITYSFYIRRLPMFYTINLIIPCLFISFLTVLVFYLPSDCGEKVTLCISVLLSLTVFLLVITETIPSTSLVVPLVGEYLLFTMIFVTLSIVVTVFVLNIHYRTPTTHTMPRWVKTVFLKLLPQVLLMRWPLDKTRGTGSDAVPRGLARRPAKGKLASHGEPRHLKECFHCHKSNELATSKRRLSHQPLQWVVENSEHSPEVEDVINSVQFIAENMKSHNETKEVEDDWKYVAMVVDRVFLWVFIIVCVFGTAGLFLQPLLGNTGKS
T1 sequence (Q05901 25-458 partner limits assumed): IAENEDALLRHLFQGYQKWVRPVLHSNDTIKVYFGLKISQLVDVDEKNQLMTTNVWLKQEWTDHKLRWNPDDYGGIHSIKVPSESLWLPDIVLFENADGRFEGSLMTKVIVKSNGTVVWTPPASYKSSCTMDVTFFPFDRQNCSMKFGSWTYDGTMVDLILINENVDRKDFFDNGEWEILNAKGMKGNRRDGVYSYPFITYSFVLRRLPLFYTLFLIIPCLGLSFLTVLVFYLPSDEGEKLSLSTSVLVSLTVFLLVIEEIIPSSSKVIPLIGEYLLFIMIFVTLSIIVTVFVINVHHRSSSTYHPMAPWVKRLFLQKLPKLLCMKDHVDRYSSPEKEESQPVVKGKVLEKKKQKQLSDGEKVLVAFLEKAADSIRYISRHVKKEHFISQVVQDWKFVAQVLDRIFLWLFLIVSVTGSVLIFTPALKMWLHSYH
T1 sequence (P30926 22-498): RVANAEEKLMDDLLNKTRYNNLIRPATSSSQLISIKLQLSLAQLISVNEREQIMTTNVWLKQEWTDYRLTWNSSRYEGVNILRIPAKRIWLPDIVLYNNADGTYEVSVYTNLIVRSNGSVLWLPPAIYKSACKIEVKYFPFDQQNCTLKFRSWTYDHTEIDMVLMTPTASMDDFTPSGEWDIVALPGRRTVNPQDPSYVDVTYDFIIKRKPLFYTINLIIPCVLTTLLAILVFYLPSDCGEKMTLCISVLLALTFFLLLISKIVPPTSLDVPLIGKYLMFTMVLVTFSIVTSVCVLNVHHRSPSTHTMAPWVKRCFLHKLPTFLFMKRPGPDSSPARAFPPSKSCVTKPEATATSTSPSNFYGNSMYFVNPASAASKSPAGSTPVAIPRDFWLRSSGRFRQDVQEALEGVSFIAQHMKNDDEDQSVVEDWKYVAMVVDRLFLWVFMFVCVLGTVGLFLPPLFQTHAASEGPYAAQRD
T1 sequence (P30532 23-468 partner): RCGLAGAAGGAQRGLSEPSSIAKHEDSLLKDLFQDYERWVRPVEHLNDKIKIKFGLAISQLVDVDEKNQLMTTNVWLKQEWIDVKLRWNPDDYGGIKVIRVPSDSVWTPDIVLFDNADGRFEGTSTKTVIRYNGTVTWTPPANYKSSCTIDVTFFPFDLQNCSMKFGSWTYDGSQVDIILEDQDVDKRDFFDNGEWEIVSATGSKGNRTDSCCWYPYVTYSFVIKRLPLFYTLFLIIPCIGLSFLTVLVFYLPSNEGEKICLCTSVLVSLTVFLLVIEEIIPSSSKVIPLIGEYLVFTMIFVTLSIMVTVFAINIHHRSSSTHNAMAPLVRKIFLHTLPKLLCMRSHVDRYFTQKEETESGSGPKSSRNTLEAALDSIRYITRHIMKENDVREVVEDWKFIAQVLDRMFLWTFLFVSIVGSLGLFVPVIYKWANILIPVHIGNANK
Description: ^86Rb^+-flux Assay. Cells were harvested at confluence from 100-mm plates by mild trypsinization (Irvine Scientific, Santa Ana, Calif.) before being resuspended in complete medium and evenly seeded at a density of one confluent 100-mm plate per 24-well plate (Falcon; ˜100-125 μg of total cell protein per well in a 500 μl volume). After cells had adhered (generally overnight, but no sooner than 4 hr later), medium was removed and replaced with 250 μl per well of complete medium supplemented with ˜300,000 cpm of ^86Rb^+ (NEN; counted at 40% efficiency using Cerenkov counting and the Packard TriCarb 1900 Liquid Scintillation Analyzer).
After at least 4 hr and typically overnight, ^86Rb^+ efflux was measured using the “flip-plate” technique (Lukas et al., 2002). […]
For each experiment, normalization and quality control measurements were made of total ^86Rb^+ efflux in samples containing a fully efficacious dose of 1 mM carbamylcholine and of non-specific ^86Rb^+ efflux measured using either samples containing 1 mM carbamylcholine plus 100 μM mecamylamine, which gave full block of agonist-induced or spontaneous, nAChR-mediated ion flux, or samples containing efflux buffer alone to assess any contributions due to spontaneous nAChR-mediated ion flux. […] Specific ^86Rb^+ efflux was determined in absolute terms and as a percentage of loaded ^86Rb^+. […]

α6β3β4α5 nAChR [2] = target: T1, α6β3β4α5 nAChR; test: [3H]-epibatidine binding to SH-EP1 α6β3β4α5 cell membranes (saturation and competition)
Description: Preparation of Cell Membranes for Receptor Binding. […] Combined homogenate (18 mL) was centrifuged at 40,000×g for 20 min (4° C.). The pellet was resuspended in 12 mL of ice-cold PBS and centrifuged again. The final pellet was resuspended in 10 mL of PBS.
[^3H]-Epibatidine Binding. For the saturation binding assay, 0.1 to 2.0 nM [^3H]-EPI (final concentrations; PerkinElmer Life Sciences, 56.2 Ci/mmol) was used to probe α6-comprising binding sites on the cell membranes. Competition binding assay was performed using 0.5 nM [^3H]-EPI (final concentration).
Each well contained 50 μL of test compound at the desired concentration, 50 μL of 4×[^3H]-EPI stock solution and 100 μL of membrane suspension and was performed in triplicate, at minimum. Samples were incubated for 2 hr at room temperature with gentle agitation. Samples defining total binding included buffer instead of test compound.
For 48-well plates, binding was terminated by immediate filtration onto GF/B filters (presoaked in 0.3% PEI) using a 48-sample, semi-auto harvester (Brandel, Gaithersburg, Md.), followed by washing 3 times with ice-cold buffer. Filters were transferred into scintillation vials filled with 3 mL of cocktail. Radioactivity was measured after 8-12 hr using a liquid scintillation analyzer (model Tri-Carb 2200CA, PerkinElmer Life Sciences Inc., Boston, Mass.). Data were expressed as disintegrations per minute (DPMs) and were converted to an absolute amount (fmoles) of bound [^3H]-EPI per mg of protein, or as a percent of control [^3H]-EPI binding (total—nonspecific).
For 96-well plates, incubation was terminated by dilution with ice-cold PBS and immediate filtration onto GF/B filter plate (presoaked in 0.3% PEI) using a 96-sample, semi-auto harvester (Brandel, Gaithersburg, Md.). After washing 3 times with ˜350 μl of ice-cold buffer, the filter plate was dried for 60 min in an oven at 49° C., bottom-sealed and each well filled with 40 μl of cocktail. […] Data were expressed as counts per minute (CPMs) and were converted to percent of control [^3H]-EPI binding (total—nonspecific).
Pseudo Hill slope (nH) was determined by fitting data to a sigmoidal dose-response equation (variable slope): % binding=Bottom+(Top−Bottom)/[1+10^(logIC50-X)·n], where X is the logarithm of inhibitor concentration and n is the slope.
A Scatchard analysis was also done for illustrative purposes, but not to determine specific binding parameters.

α4β2 nAChR [3] = target: T2, α4β2 nAChR (Rattus norvegicus, UniProt P09483+P12390); test: biochemical; format: binding
T2 construct: Rat Brain; from tissue
T2 sequence (P12390 25-500): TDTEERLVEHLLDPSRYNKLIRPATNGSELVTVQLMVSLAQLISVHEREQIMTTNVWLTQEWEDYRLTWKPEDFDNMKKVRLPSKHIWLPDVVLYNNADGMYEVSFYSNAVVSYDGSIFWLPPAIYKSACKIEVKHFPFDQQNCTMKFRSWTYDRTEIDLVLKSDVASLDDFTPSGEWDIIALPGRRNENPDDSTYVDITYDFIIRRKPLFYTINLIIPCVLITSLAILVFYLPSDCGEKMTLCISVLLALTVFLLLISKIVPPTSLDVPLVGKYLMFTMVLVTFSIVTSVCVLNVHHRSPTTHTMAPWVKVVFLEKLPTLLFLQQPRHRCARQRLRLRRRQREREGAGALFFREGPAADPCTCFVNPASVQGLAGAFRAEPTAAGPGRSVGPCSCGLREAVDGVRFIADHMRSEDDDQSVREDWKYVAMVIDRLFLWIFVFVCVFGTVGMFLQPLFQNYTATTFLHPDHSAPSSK
T2 sequence (P09483 31-630): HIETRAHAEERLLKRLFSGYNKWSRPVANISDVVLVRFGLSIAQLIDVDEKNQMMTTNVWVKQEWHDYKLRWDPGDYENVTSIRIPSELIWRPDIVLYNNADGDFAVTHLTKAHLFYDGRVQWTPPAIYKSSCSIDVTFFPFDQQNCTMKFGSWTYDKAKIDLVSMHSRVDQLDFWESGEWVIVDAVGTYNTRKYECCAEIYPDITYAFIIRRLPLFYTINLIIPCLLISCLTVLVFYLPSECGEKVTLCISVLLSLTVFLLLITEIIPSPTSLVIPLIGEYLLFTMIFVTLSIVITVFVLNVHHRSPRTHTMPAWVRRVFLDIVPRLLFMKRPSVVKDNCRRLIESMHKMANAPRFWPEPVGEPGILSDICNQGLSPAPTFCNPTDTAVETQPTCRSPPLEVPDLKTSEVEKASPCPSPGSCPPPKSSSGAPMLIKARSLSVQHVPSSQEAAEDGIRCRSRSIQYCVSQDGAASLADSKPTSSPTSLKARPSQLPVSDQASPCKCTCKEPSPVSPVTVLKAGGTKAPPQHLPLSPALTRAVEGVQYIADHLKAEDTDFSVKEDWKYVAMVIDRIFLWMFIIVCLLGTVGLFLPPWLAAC

α6α4β2β3 nAChR [4] = target: α6α4β2β3 nAChR (Homo sapiens, UniProt P17787+P43681+Q15825, P452S); test: 86Rb+ efflux assay, SH-EP1 α6α4β2β3 cells compared with α4β2 cells; format: cell-based
α6α4β2β3 nAChR (Homo sapiens, UniProt P17787+P43681+Q15825, P452S), sequence (P43681 27-627 P452S): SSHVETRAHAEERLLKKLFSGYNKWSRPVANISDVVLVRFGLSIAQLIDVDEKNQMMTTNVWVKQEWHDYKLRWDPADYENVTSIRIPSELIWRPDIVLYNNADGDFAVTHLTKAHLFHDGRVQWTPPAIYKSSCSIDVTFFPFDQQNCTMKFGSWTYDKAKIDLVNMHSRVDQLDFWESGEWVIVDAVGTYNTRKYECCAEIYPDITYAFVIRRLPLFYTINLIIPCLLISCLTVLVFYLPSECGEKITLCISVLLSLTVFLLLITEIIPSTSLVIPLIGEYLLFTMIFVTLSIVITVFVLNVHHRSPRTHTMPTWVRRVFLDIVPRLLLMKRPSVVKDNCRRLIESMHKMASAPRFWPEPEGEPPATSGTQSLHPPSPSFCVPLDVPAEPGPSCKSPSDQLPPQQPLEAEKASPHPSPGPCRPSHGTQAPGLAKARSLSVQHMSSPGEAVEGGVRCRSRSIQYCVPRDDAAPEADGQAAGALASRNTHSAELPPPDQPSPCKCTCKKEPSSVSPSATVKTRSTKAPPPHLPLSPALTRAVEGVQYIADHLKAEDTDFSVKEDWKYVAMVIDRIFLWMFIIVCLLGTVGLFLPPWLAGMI
α6α4β2β3 nAChR (Homo sapiens, UniProt P17787+P43681+Q15825, P452S), sequence (Q15825 26-494): as the sequence (Q15825 26-494) above
α6α4β2β3 nAChR (Homo sapiens, UniProt P17787+P43681+Q15825, P452S), sequence (P17787 26-502): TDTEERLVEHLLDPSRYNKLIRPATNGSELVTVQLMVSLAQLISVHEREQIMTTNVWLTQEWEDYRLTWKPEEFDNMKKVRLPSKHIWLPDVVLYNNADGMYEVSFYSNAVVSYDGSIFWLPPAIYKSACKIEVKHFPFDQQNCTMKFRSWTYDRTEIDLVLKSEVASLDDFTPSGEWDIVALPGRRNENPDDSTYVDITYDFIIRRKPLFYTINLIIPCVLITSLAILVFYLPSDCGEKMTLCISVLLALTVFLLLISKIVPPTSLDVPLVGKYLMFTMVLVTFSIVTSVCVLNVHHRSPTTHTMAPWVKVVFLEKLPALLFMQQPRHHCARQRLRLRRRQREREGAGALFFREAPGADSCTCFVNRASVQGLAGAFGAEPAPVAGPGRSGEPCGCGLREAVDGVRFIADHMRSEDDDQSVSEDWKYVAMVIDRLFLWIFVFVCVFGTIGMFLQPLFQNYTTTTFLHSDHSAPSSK
α6α4β2β3 nAChR (Homo sapiens, UniProt P17787+P43681+Q15825, P452S), sequence (Q05901 22-458, further chain): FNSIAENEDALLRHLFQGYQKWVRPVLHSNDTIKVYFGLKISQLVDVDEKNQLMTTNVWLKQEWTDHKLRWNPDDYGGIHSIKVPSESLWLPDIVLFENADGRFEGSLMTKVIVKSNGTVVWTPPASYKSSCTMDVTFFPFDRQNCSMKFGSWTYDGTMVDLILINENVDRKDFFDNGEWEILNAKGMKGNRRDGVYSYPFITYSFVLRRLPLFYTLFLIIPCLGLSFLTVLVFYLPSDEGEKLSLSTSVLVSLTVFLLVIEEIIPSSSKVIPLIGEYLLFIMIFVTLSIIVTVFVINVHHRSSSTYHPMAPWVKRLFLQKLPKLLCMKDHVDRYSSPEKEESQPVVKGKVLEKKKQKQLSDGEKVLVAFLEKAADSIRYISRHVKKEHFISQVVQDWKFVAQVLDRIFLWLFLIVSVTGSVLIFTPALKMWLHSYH
Description: (§1) ^86Rb^+-flux Assay. […] After cells had adhered (generally overnight, but no sooner than 4 hr later), medium was removed and replaced with 250 μl per well of complete medium supplemented with ˜300,000 cpm of ^86Rb^+ (NEN; counted at 40% efficiency using Cerenkov counting and the Packard TriCarb 1900 Liquid Scintillation Analyzer).
(§2) Briefly, after aspiration of the bulk of ^86Rb^+ loading medium from each well of the “cell plate,” each well containing cells was rinsed three times with 2 ml of fresh ^86 Rb^+ efflux buffer (130 mM NaCl, 5.4 mM KCl, 2 mM CaCl2, 5 mM glucose, 50 mM HEPES, pH 7.4) to remove extracellular ^86Rb^+. Following removal of residual rinse buffer by aspiration, the flip-plate technique was used again to simultaneously introduce fresh efflux buffer containing drugs of choice at indicated final concentrations from a 24-well “efflux/drug plate” into the wells of the cell plate. […]
(§3) Intrinsic agonist activity of test drugs was ascertained in samples containing that drug only at different concentrations and was normalized, after subtraction of non-specific efflux, to specific efflux assessed using carbamylcholine and efflux-buffer-only controls. Antagonist activity was determined for test drugs at different concentrations in the presence of 1 mM carbamylcholine and was normalized, after subtraction of non-specific efflux, to specific efflux ascertained using carbamylcholine and efflux buffer-only controls. ^86Rb^+ in both cell plates and efflux/drug plates was periodically determined to ensure material balance (i.e., that the sum of ^86Rb^+ released into the efflux/drug plate and ^86Rb^+ remaining in the cell plate were the same for each well) and to determine efficiency of ^86Rb^+ loading (the percentage of applied ^86Rb^+ actually loaded into cells).
(§4) In some cases, biphasic dose-ion flux response curves were evident and were fit to a two-phase Hill equation from which EC50 and Hill coefficients for the rising, agonist phase, and IC50 and Hill coefficients for the falling, self-inhibitory phase could be determined (Prism).

α7 nAChR [5] = target: T3, α7 nAChR (Rattus norvegicus, UniProt Q05941); test: biochemical; conditions: read-out: Ki α7 [3H]-MLA Binding
T3 construct: Rat brain; from tissue
T3 sequence (Q05941 23-502): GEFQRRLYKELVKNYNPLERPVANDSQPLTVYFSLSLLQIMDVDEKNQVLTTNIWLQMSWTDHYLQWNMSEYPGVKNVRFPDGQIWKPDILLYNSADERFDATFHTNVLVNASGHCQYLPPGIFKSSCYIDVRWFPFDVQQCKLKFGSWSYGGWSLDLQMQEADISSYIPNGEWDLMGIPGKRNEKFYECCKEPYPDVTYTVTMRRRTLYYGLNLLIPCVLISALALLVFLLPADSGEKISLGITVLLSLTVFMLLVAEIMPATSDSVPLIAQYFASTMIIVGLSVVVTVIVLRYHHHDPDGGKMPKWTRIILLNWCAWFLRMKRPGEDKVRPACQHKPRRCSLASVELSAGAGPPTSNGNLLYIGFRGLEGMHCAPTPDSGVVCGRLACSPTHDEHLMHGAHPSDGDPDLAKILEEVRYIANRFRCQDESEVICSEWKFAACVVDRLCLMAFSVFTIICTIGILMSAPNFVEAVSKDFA

α7 nAChR [6] = target: T3, α7 nAChR; conditions: Table 1; from Briggs et al, 1997; read-out: Ki α7 [3H]-MLA Binding; cited from earlier work
α4β2 nAChR [7] = target: T2, α4β2 nAChR; conditions: Table 1; from Briggs et al, 1997; read-out: Ki α4β2 [3H]-NIC Binding; cited from earlier work
DA release = conditions: Bencherif, et al., 1998; cited from earlier work
α6α4β2β3 nAChR [8] = target: α6α4β2β3 nAChR (Homo sapiens, UniProt P17787+P43681+Q15825); test: 86Rb+ efflux assay, SH-EP1 α6α4β2β3 cells compared with α4β2 cells; format: cell-based
Description: as §1, §2, §3, §4

[9] = SH-EP1 cells, Table 1, read-out: Ki α6β3β4α5 [3H]-EPI Binding
[10] = SH-EP1 α6β3β4α5 membranes, read-out: Ki in competition with [3H]-EPI (rank order of potency)
[11] = read-out: Ki α4β2 [3H]-NIC Binding
[12] = read-out: Ki α6β3β4α5 [3H]-EPI Binding
[13] = Ki in competition with [3H]-EPI (rank order of potency)

For `C[N+](C)(C)CCOC(N)=O` [CAR, carbachol], the “86Rb+ efflux response (agonist)” value (α6β3β4α5 nAChR [1]) was “activate ^86Rb^+ efflux responses”, the Ki (α6β3β4α5 nAChR [2]; [9]) was 3500 nM and the Ki (α6β3β4α5 nAChR [2]; [10]) was 900 to 3500 nM and 500 to 2000 nM.
In the case of `O=c1cccc2n1C[C@@H]1CNC[C@H]2C1` [(-)-CYT, cytisine], the Ki (α4β2 nAChR [3]; [11]) is reported as 1 nM, the “Agonist efficacy/potency at α6α4β2β3 nAChR relative to α4β2-nAChR” value (α6α4β2β3 nAChR [4]) is reported as “higher efficacy and agonist potency; also recorded: much greater efficacy” and the Ki (α6β3β4α5 nAChR [2]; [12]) is reported as 150 nM. For the same molecule, the Ki (α7 nAChR [5]) was 1160 nM.
`CCN1C[C@]2(COC(=O)c3ccccc3N3C(=O)C[C@H](C)C3=O)CC[C@H](OC)[C@]34C5C[C@@H]6[C@@H](OC)C[C@@](O)(C5[C@H]6OC(C)=O)[C@](O)(C13)[C@@H](OC)C24` (stereo partly drawn) [NUD, nudikauline] gave a Ki (α6β3β4α5 nAChR [2]; [9]) of 370 nM.
With `Clc1ccc(C2CC3CCC2N3)cn1` (stereo not drawn) [EPI, epibatidine] the Ki (α6β3β4α5 nAChR [2]; Ki α6β3β4α5 [3H]-EPI Binding) was 0.07 nM.
For `CO[C@H]1CC=C2CCN3CCC4=C(CC(=O)OC4)[C@]23C1` [DHβE, dihydro-β-erythoidine], the Ki (α4β2 nAChR [3]; [11]) was 26.4 nM, the Ki (α6β3β4α5 nAChR [2]; [12]) was greater than 10000 nM and the Ki (α7 nAChR [5]) was 5000 nM.
For `c1cncc(OC[C@@H]2CCN2)c1` [A-85380, 3-[2(S)-azetidinylmethoxy]pyridine], the Ki (α4β2 nAChR [3]) was 3 nM, the Ki (α6β3β4α5 nAChR [2]; [13]) was 7 to 9 nM and 6 nM and the Ki (α6β3β4α5 nAChR [2]; [9]) was 9 nM. For the same molecule, the Ki (α7 nAChR [5]; Rat brain, Table 1) was 1200 nM.
Molecule `CNC(=O)OCC[N+](C)(C)C` [MCC, methylcarbamylcholine] has a Ki (α6β3β4α5 nAChR [2]; [9]) of 970 nM.
In the case of `COc1ccc(/C=C2\CCCN=C2c2cccnc2)c(OC)c1` [GTS-21, (2.4)-dimethoxybenzylidene anabaseine], the Ki (α7 nAChR [6]) is listed as 2000 nM, the Ki (α6β3β4α5 nAChR [2]; [13]) is listed as 900 to 3500 nM and 500 to 2000 nM and the Ki (α6β3β4α5 nAChR [2]; [9]) is listed as 1400 nM. The Ki (α4β2 nAChR [7]) was 20 nM.
In the case of `c1cncc(C2CC3CCN2CC3)c1` (racemic) [TC-2429, (+/−)-2-(−3-pyridinyl)-1-azabicyclo[2.2.2]octane], the DA release (DA release) is given as “robust DA release” and the Ki (α6β3β4α5 nAChR [2]; [10]) is given as 2 nM.
In the case of `CN1CCCC1c1cccnc1` (single isomer, unassigned; (-)) [(-)-NIC, nicotine], the Ki (α6β3β4α5 nAChR [2]; [13]) is reported as 150 to 165 nM and 110 to 160 nM and the Ki (α6β3β4α5 nAChR [2]; Ki α6β3β4α5 [3H]-EPI Binding) is reported as 160 nM.
In the case of `C#Cc1cncc([C@@H]2CCCN2C)c1` [SIB-1508Y, altinicline], the Ki (α4β2 nAChR [3]) is reported as 200 nM, the Ki (α6β3β4α5 nAChR [2]; [13]) is reported as 900 to 3500 nM and 500 to 2000 nM and the Ki (α6β3β4α5 nAChR [2]; [9]) is reported as 950 nM.
In the case of `Cc1cc([C@@H]2CCCN2C)on1` [ABT-418, (S)-3-methyl-5-(1-methyl-2-pyrrolidinyl)isoxazole], the Ki (α4β2 nAChR [3]; Rat brain, Table 1, read-out: Ki α4β2 [3H]-NIC Binding) is reported as 39 nM, the Ki (α6β3β4α5 nAChR [2]; [13]) is reported as 900 to 3500 nM and 500 to 2000 nM and the Ki (α6β3β4α5 nAChR [2]; [9]) is reported as 850 nM.
In the case of α-bungarotoxin [α-Btx], the Ki (α4β2 nAChR [3]; [11]) is reported as greater than 10000 nM and the Ki (α6β3β4α5 nAChR [2]; [12]) is reported as greater than 10000 nM.
In the case of `CN1[C@@H](CC(=O)c2ccccc2)CCC[C@H]1C[C@H](O)c1ccccc1` [(-)-LOB, lobeline], the Ki (α6β3β4α5 nAChR [2]; [9]) is reported as 7 nM and the Ki (α6β3β4α5 nAChR [2]; [10]) is reported as 7 to 9 nM and 6 nM.
In the case of `CCN1C[C@]2(COC(=O)c3ccccc3N3C(=O)C[C@H](C)C3=O)CC[C@H](OC)[C@@]34[C@@H]5C[C@H]6[C@H](OC)[C@@H]5[C@](O)(C[C@@H]6OC)[C@@](O)([C@@H](OC)[C@H]23)[C@@H]14` [MLA, methyllycaconitine], the Ki (α6β3β4α5 nAChR [2]; [9]) is reported as 160 nM and the Ki (α6β3β4α5 nAChR [2]; [10]) is reported as 150 to 165 nM and 110 to 160 nM.
`CNC1(C)C2CCC(C2)C1(C)C` (stereo not drawn) [mecamylamine] gave a Ki (α6β3β4α5 nAChR [2]; read-out: Ki in competition with [3H]-EPI (rank order of potency)) greater than 10000 nM.
With `CC(=O)O[C@H]1C[C@@H]2CC[C@@H]3[C@H](CC[C@@]4(C)[C@H]3C[C@H]([N+]3(C)CCCCC3)[C@@H]4OC(C)=O)[C@@]2(C)C[C@@H]1[N+]1(C)CCCCC1` [pancuronium] the “Sensitivity of α6α4β2β3-nAChR to functional blockade relative to α4β2-nAChR” value (α6α4β2β3 nAChR [8]) was “lower sensitivity”.
